Laboratory results taken from patent US11312721B2 (priority 2015, dated 2022).
pKi: −log10 of the molar value. “Also recorded” adds a separate entry of the source. Read-outs that look alike come from different tables or passages of the source.

How the values were obtained:
GABAA α5 receptor = target: T1, GABAA α5 receptor (Rattus norvegicus, UniProt P19969); experiment: GABAA α5 receptor occupancy in vivo with Ro 15-4513 tracer; design: species or system Long Evans rats; details: for effect on Ro 15-4513 binding in hippocampus and cerebellum: 0.01-10 mg/kg
T1 construct: from tissue
T1 sequence (P19969 32-464 limits assumed): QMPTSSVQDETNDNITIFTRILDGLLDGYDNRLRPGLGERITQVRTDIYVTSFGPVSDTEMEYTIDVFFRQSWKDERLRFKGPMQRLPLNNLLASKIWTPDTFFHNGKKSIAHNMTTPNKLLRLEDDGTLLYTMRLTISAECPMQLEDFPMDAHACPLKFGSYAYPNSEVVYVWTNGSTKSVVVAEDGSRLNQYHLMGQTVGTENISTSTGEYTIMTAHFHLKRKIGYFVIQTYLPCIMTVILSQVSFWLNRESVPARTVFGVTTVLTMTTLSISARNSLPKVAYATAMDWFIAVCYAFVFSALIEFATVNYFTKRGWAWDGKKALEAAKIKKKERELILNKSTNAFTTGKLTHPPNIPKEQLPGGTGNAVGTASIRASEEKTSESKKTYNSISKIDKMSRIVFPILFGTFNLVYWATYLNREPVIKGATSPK
Source text: (§1) Food and water were available ad libitum.

MAM-treated rats = details: cited from earlier work
aged-impaired (AI) rats [1] = experiment: Radial Arm Maze (RAM) behavioral task, spatial memory retention; assay type: in vivo, rat
Experimental: The effects of methyl 3,5-diphenylpyridazine-4-carboxylate on the in vivo spatial memory retention of aged-impaired (AI) rats were assessed in a Radial Arm Maze (RAM) behavioral task using vehicle control and four different dosage levels of methyl 3,5-diphenylpyridazine-4-carboxylate ([…]). RAM behavioral tasks were performed on eight AI rats. All five treatment conditions (vehicle and four dosage levels) were tested on all eight rats.
The RAM apparatus used consisted of eight equidistantly-spaced arms. An elevated maze arm (7 cm width×75 cm length) projected from each facet of an octagonal center platform (30 cm diameter, 51.5 cm height). Clear side walls on the arms were 10 cm high and were angled at […] to form a trough. A food well (4 cm diameter, 2 cm deep) was located at the distal end of each arm. Froot Loops™ (Kellogg Company) were used as rewards. Blocks constructed of Plexiglas™ (30 cm height×12 cm width) could be positioned to prevent entry to any arm. Numerous extra maze cues surrounding the apparatus were also provided.
The AI rats were initially subjected to a pre-training test (Chappell et al. Neuropharmacology 37: 481-487, 1998). The pre-training test consisted of a habituation phase (4 days), a training phase on the standard win-shift task (18 days) and another training phase (14 days) in which a brief delay was imposed between presentation of a subset of arms designated by the experimenter (e.g., 5 arms available and 3 arms blocked) and completion of the eight-arm win-shift task (i.e., with all eight arms available).
In the habituation phase, rats were familiarized to the maze for an 8-minute session on four consecutive days. In each of these sessions, food rewards were scattered on the RAM, initially on the center platform and arms and then progressively confined to the arms. After this habituation phase, a standard training protocol was used, in which a food pellet was located at the end of each arm. Rats received one trial each day for 18 days. Each daily trial terminated when all eight food pellets had been obtained or when either 16 choices were made or 15 minutes had elapsed. After completion of this training phase, a second training phase was carried out in which the memory demand was increased by imposing a brief delay during the trial. At the beginning of each trial, three arms of the eight-arm maze were blocked. Rats were allowed to obtain food on the five arms to which access was permitted during this initial “information phase” of the trial. Rats were then removed from the maze for 60 seconds, during which time the barriers on the maze were removed, thus allowing access to all eight arms. Rats were then placed back onto the center platform and allowed to obtain the remaining food rewards during this “retention test” phase of the trial. […]

[2] = assay type: in vivo, Long Evans rats; details: i.v.
Experimental: as §1
For plasma exposures, blood samples were centrifuged at 14000 rpm for 16 minutes. After centrifuging, 50 ul of supernatant (plasma) from each sample was added to 200 μl of acetonitrile plus 0.1% formic acid. […] Samples were sonicated for 5 minutes in an ultrasonic water bath, followed by centrifugation for 30 minutes, at 16000 RPM. 100 ul of supernatant was removed from each sample vial and placed in a new glass auto sample vial, followed by the addition of 300 μl of sterile water (pH 6.5).
Additional studies were conducted in aged Long-Evans rats in order to determine the exposures at the behaviorally relevant doses in the cognition studies. Exposure in young Long-Evans rats was also determined to bridge with the receptor occupancy studies that were conducted in young Long-Evans rats. Exposures in young and aged Long-Evans rats were relatively similar (Table 4, FIG. 4).

α5-containing GABAA R = α5-containing GABAA R (Homo sapiens, UniProt P18507+P31644); details: (EC20); cited from earlier work
Sequence of α5-containing GABAA R (P31644 32-462): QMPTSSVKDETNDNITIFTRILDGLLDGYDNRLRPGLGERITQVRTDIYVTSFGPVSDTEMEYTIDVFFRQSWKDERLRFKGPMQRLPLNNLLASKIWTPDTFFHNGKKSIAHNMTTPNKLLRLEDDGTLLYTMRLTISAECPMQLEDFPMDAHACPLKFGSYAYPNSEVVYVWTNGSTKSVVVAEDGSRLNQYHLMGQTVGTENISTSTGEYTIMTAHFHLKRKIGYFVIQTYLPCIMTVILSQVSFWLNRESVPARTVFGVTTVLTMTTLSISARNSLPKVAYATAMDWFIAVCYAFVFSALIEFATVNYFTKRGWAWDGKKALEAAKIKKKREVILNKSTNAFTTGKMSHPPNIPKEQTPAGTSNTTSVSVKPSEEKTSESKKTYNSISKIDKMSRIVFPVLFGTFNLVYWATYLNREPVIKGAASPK
Sequence of α5-containing GABAA R (P28472 26-473 partner): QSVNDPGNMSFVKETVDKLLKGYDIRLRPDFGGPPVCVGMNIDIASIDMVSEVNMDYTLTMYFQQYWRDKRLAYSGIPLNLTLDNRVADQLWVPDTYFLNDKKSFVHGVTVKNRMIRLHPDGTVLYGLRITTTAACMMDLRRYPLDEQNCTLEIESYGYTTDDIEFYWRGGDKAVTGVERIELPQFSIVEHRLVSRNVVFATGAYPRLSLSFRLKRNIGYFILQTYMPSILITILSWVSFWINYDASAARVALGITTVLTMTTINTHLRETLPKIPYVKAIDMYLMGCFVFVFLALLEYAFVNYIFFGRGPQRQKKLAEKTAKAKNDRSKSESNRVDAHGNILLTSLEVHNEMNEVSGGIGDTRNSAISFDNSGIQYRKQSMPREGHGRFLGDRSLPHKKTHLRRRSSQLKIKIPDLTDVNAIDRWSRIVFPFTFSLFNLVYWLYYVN
Sequence of α5-containing GABAA R (P18507 40-475): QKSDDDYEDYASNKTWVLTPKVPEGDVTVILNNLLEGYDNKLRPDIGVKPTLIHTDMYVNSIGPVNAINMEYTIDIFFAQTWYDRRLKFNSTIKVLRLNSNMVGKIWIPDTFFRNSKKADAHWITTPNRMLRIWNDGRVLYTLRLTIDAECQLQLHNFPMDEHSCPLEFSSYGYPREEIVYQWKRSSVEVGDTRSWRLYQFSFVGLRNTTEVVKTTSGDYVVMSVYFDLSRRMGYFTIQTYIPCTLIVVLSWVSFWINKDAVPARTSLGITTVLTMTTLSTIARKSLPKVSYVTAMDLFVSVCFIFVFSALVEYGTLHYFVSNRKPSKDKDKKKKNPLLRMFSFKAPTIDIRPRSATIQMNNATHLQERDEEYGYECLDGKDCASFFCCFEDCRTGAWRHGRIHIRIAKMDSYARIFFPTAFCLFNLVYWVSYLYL

aged-impaired (AI) rats [3] = experiment: Morris water maze behavioral task; assay type: in vivo, rat; details: 100 μg ICV
Experimental: The effects of 6,6 dimethyl-3-(3-hydroxypropyl)thio-1-(thiazol-2-yl)-6,7-dihydro-2-benzothiophen-4(5H)-one on the in vivo spatial memory retention of aged-impaired (AI) rats were assessed in a Morris water maze behavioral task. A water maze is a pool surrounded with a novel set of patterns relative to the maze.
Cognitively impaired aged rats were implanted unilaterally with a cannula into the lateral ventricle. Stereotaxic coordinates were 1.0 mm posterior to bregma, 1.5 mm lateral to midline, and 3.5 mm ventral to the skull surface. After about a week of recovery, the rats were pre-trained in a water maze for 2 days (6 trials per day) to locate a submerged escape platform hidden underneath the surface of the pool, in which the escape platform location varied from day to day. No intracerebroventricular (ICV) infusion was given during pre-training.
After pre-training, rats received ICV infusion of either 100 μg 6,6 dimethyl-3-(3-hydroxypropyl)thio-1-(thiazol-2-yl)-6,7-dihydro-2-benzothiophen-4(5H)-one (n=6) in 5 μl DMSO or vehicle DMSO (n=5) 40 min prior to water maze training and testing. Training consisted of 8 trials per day for 2 days where the hidden escape platform remained in the same location. Rats were given 60 seconds to locate the platform with a 60 seconds inter-trial interval. The rats were given a probe test (120 seconds) 24 hr. after the end of training where the escape platform was removed. During the training, there were 4 blocks, where each block had 4 training trials.
During a test trial 24 hr. after training, the escape platform was removed. The search/swim pattern of the rats was used to measure whether the rats remember where the escape platform was located during pre-trial training in order to test for the long-term memory of the rats. In this trial, “target annulus” is a designated area 1.5 times the size of the escape platform around the area where the platform was located during pre-trial training. “Opposite annulus” is a control area of the same size as the size of the target annulus, which is located opposite to the target annulus in the pool. If the rats had good long term memory, they would tend to search in the area surrounding the location where the platform was during the pre-trial training (i.e., the “target” annulus; and not the “opposite” annulus). “Time in annulus” is the amount of time in seconds that the rat spent in the target or opposite annulus area. “Number (#) of crossings” in annulus is the number of times the rat swam across the target or opposite annulus area.

[4] = target: T2, α5β3γ2 GABAA receptors (Ltk cells) (Homo sapiens, UniProt P18507+P31644); experiment: Binding activity on GABAAR: inhibition of [3H]Ro15-1788 binding
T2 construct: membranes
T2 sequence (P31644 32-462): as the sequence (P31644 32-462) above
T2 sequence (P28472 26-473 partner): as the sequence (P28472 26-473 partner) above
T2 sequence (P18507 40-475): as the sequence (P18507 40-475) above

GABAA receptors (α5β2γ2) = target: T3, GABAA receptors (α5β2γ2) (Homo sapiens, UniProt P18507+P31644); experiment: Positive allosteric modulator activity: potentiation of EC20 GABA current in oocytes; assay type: cell-based; details: read-out: GABA α5 functional potentiation
T3 construct: expressed in transfected cells
T3 sequence (P31644 32-462): as the sequence (P31644 32-462) above
T3 sequence (P47870 25-512 partner limits assumed): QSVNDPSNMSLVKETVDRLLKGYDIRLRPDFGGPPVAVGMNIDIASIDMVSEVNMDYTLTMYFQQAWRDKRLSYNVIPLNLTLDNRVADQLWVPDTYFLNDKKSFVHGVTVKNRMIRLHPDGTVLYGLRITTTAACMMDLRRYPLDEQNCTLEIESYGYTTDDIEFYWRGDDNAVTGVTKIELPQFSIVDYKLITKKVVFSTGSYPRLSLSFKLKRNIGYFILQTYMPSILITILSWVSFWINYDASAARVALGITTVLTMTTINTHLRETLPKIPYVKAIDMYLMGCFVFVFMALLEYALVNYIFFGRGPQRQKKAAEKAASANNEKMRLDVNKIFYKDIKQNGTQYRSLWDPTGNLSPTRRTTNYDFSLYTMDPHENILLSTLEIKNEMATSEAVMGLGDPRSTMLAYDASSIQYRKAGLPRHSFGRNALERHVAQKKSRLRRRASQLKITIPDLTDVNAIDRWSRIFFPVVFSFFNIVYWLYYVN
T3 sequence (P18507 40-475): as the sequence (P18507 40-475) above
Experimental: On day 1, 1 ng/32 nL of GABAA α5β2γ2 cDNA was injected into one oocyte. Test starts on day 2. The cDNA injected to the oocytes was a mix of alpha, beta and gamma, their ratio is 1:1:10 (by weight) and the total weight of the mixed 3 subunits to be injected in one oocyte was 1 ng in 32 nl volume. The injected oocytes can also be tested on day 3. In such case, the cDNA amount injected to the oocytes should be reduced by 20%.
1). 8 oocytes were placed in 8 chambers of OpusXpress and superfused with Modified Barth's Saline (MBS) at 3 mL/min. Glass electrodes back-filled with 3M KCl (0.5-3 megaohms) were used.
1). Repeat the above steps 1), 2) and 3) in the control test.
2). […] Divide Itest by IGABA to obtain potentiation (%).
3). Discard all tested oocytes, new oocytes were used and the above steps 1) and 2) were repeated to test second concentration of the same compound. Each oocyte was used for only one concentration test for a single test compound. The steps were repeated for other test compounds.

[5] = probe test 24 hr. after training

CCOC(=O)c1ncn2c1Cn1c(C)nnc1-c1cc(OC)ccc1-2 [Ethyl 3-methoxy-7-methyl-9H-benzo[f]imidazo[1,5-a][1,2,4]tri]
effect on Ro 15-4513 binding in hippocampus and cerebellum (GABAA α5 receptor; i.v.): blocked the binding of Ro154513 in the hippocampus but did not affect binding of Ro15413 in the cerebellum

C#Cc1ccc2c(c1)C(c1ccccc1F)=N[C@H](C)c1c(C(=O)OCC)ncn1-2 [SH-053-2′F—R—CH3]
number of spontaneously active DA neurons in the VTA (MAM-treated rats; MAM rats, systemic or infused into the ventral HPC): reduces the number of spontaneously active DA neurons in the ventral tegmental area (VTA) of MAM rats to levels observed in saline-treated rats | locomotor response to amphetamine (MAM-treated rats; MAM-treated rats): is reduced | cortical-evoked responses of HPC neurons (MAM-treated rats; saline-treated and MAM-treated animals): diminished cortical-evoked responses

COC(=O)c1c(-c2ccccc2)cnnc1-c1ccccc1 [Methyl 3,5-diphenylpyridazine-4-carboxylate]
effect on Ro 15-4513 binding in hippocampus and cerebellum (GABAA α5 receptor; i.v.): dose-dependently reduced Ro 15-4513 binding in hippocampus, without affecting cerebellum levels of Ro 15-4513; also recorded: blocked the binding of Ro154513 in the hippocampus but did not affect binding of Ro15413 in the cerebellum | RO required for cognitive efficacy in this model (GABAA α5 receptor; from exposure in aged rats at 3 mg/kg, i.p.): 30-40% | GABAA α5 receptors occupied at behaviorally active exposures (GABAA α5 receptor; hippocampus, exposures behaviorally active in aged-impaired rats): about 32% | ED50 of receptor occupancy, ratio method (GABAA α5 receptor; i.v., hippocampus/cerebellum ratio method): 1.8 mg/kg | receptor occupancy at 1 mg/kg (GABAA α5 receptor; rat, iv, 1 mg/kg, i.v., depending on method used to determine RO, read-out: receptor occupancy at an exposure of 180 ng/g in hippocampus): 32 to 39% | receptor occupancy at 10 mg/kg (GABAA α5 receptor; rat, iv, 10 mg/kg): > 90% | ED50 (GABAA α5 receptor; rat, iv, read-out: ED50 of receptor occupancy, using L-755,608 to define occupancy): 1.1 mg/kg | average no. of errors ± SEM in retention test (aged-impaired (AI) rats [1]; 3 mg/kg ip, two-hour delay RAM, AI rats): 1.31±0.40 | memory performance relative to vehicle control (aged-impaired (AI) rats [1]; 3 mg/kg ip, two-hour delay RAM, t(7)=4.233, p=0.004): significantly improved memory performance | fold increase in hippocampal exposure ([2]; dose from 0.1 to 1 mg/kg): 12 fold | fold increase in hippocampal exposure ([2]; dose from 1 to 10 mg/kg): ~5 fold | fold increase in plasma exposure ([2]; dose from 1 to 10 mg/kg): 12 fold | α5 in vitro efficacy (α5-containing GABAA R): +27

CCOC(=O)c1ncn2c1Cn1c(C)nnc1-c1cc(OC)ccc1-2 [ethyl 3-methoxy-7-methyl-9H-benzo[f]imidazo[1,5-a][1,2,4]tri]
effect on Ro 15-4513 binding in hippocampus and cerebellum (GABAA α5 receptor; i.v.): reduced Ro 15-4513 binding in hippocampus, without affecting cerebellum levels of Ro 15-4513 | GABAA α5 receptor occupancy (GABAA α5 receptor; 10 mg/kg, i.v.): > 90% | memory performance relative to vehicle control (aged-impaired (AI) rats [1]; 3 mg/kg, four-hour delay RAM, t(7)=4.13, p=0.004, or t(7)=3.08, p=0.018): significantly improved memory performance | memory performance relative to vehicle control (aged-impaired (AI) rats [1]; 10 mg/kg, four-hour delay RAM, t(7)=2.82, p=0.026): significantly improved memory performance

CC1(C)CC(=O)c2c(SCCCO)sc(-c3nccs3)c2C1 [6,6 dimethyl-3-(3-hydroxypropyl)thio-1-(thiazol-2-yl)-6,7-dihydro-2-benzothiophen-4(5H)-one]
time to find the escape platform (aged-impaired (AI) rats [3]; block 1 (beginning of training)): about 24 seconds | time to find the escape platform (aged-impaired (AI) rats [3]; block 4 (end of training)): about 9.6 seconds | number of crossings of target annulus compared with opposite annulus (aged-impaired (AI) rats [3]; [5]): crossed the “target annulus” more often | time in target annulus compared with opposite annulus (aged-impaired (AI) rats [3]; [5]): spent significantly more time in the target annulus

COc1ccc2c(c1)-n1nnc(COc3ccccc3F)c1Cc1c(-c3noc(C)n3)ncn1-2 [Compound 181]
pKi [4]: > 7.00 | activation at 0.1 µM (GABAA receptors (α5β2γ2)): 20 to 49%

CCOC(=O)c1ncn2c1CN(C)C(=O)c1cc(N=[N+]=[N-])ccc1-2 [Ro 15-4513]
tracer level, hippocampus compared with cerebellum (GABAA α5 receptor; 1 μg/kg, i.v. tracer after vehicle): > 5 fold

COc1ccc2c(c1)-n1nnc(Cc3cccnc3)c1Cc1c(C#N)ncn1-2 [Compound 210]
pKi [4]: > 7.00 | activation at 0.1 µM (GABAA receptors (α5β2γ2)): 20 to 49%

COc1ccc2c(c1)-n1nnc(COc3ccccc3)c1Cc1c(C#N)ncn1-2 [Compound 224]
pKi [4]: > 7.00 | activation at 0.1 µM (GABAA receptors (α5β2γ2)): 20 to 49%

COCc1nnc2n1Cc1c(-c3nc(C)no3)ncn1-c1ccc(Cl)cc1-2 [Compound 198]
pKi [4]: > 7.00 | activation at 0.1 µM (GABAA receptors (α5β2γ2)): 20 to 49%

FC(F)=Cc1ncn2c1Cn1c(COc3ccccc3)nnc1-c1cc(Cl)ccc1-2 [Compound 199]
pKi [4]: > 7.00 | activation at 0.1 µM (GABAA receptors (α5β2γ2)): 20 to 49%

C#Cc1ncn2c1Cn1c(COC)nnc1-c1cc(Cl)ccc1-2 [Compound 256]
pKi [4]: > 7.00 | activation at 0.1 µM (GABAA receptors (α5β2γ2)): 20 to 49%
